System: Galium aparine
Assay: Field trials in winter oilseed rape: visually estimated weed control of Galium aparine, synergy by the Colby method
Type: in vivo
Details: pethoxamid 1200 g a.i/ha, picloram 23 g a.i/ha, A + B 1200 + 23 g/ha
Description: Two field trials are established in commercial fields of winter oilseed rape Brassica napus, at sites known to contain natural populations of broad-leaved weeds, including Galium aparine. Plots, with a minimum size of 18 m^2, are arranged with three replicates per treatment.
At each trial, each treatment is applied using a small plot sprayer fitted with flatfan nozzles in a spray volume of 200 l/ha at one of three treatment timings: Timing A—early post-emergence of the oilseed rape, when the crop is at cotyledon to one true leaf stage (BBCH10/11) and pre-emergence of G. aparine; Timing B—when the crop has two true leaves (BBCH 12) of the crop and at emergence of G. aparine (BBCH09-10). Full application details are recorded, including weather and soil conditions, as well as growth stages and populations of crop and weed species.
Weed control is then assessed by visually estimating the control, as a percentage, relative to the ground cover and vigour of each weed species in the untreated plots. The weed control evaluation is made at 24-27 days, 40-46 days, 54-60 days and 75-81 days after treatment Timing A.
The data is then analysed using the Colby method to determine synergy.

[1] = Timing A (crop BBCH10/11, pre-emergence of G. aparine), 24-27 days after Timing A
[2] = Timing A (crop BBCH10/11, pre-emergence of G. aparine), 40-46 days after Timing A
[3] = Timing A (crop BBCH10/11, pre-emergence of G. aparine), 54-60 days after Timing A
[4] = Timing A (crop BBCH10/11, pre-emergence of G. aparine), 75-81 days after Timing A
[5] = Timing B (crop BBCH 12, at emergence of G. aparine BBCH09-10), 24-27 days
[6] = Timing B (crop BBCH 12, at emergence of G. aparine BBCH09-10), 40-46 days
[7] = Timing B (crop BBCH 12, at emergence of G. aparine BBCH09-10), 75-81 days

## CCOCCN(C(=O)CCl)C(=C(C)C)c1ccccc1 [pethoxamid]
[1]
  Weed control (visual estimate relative to untreated plots): 56.67%
[2]
  Weed control (visual estimate relative to untreated plots): 20%
[3]
  Weed control (visual estimate relative to untreated plots): 43.33%
[4]
  Weed control (visual estimate relative to untreated plots): 23.33%
[5]
  Weed control (visual estimate relative to untreated plots): 20%
[6]
  Weed control (visual estimate relative to untreated plots): 6.67%
[7]
  Weed control (visual estimate relative to untreated plots): 50%

## Nc1c(Cl)c(Cl)nc(C(=O)O)c1Cl [picloram]
[1]
  Weed control (visual estimate relative to untreated plots): 0%
[2]
  Weed control (visual estimate relative to untreated plots): 0%
[3]
  Weed control (visual estimate relative to untreated plots): 30%
[4]
  Weed control (visual estimate relative to untreated plots): 30%
[5]
  Weed control (visual estimate relative to untreated plots): 10%
[6]
  Weed control (visual estimate relative to untreated plots): 6.67%
[7]
  Weed control (visual estimate relative to untreated plots): 43.33%

— patent US9861103B2, “Combination of pethoxamid and picloram” (CHEMINOVA A/S, priority 2013, dated 2018)
